From the supplement of paper PMC11451515

Test system: P12-Ichikawa
Assay: cell viability relative to DMSO control; higher = less cytotoxic
Conditions: 48 h
Method in brief: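 Library compounds in DMSO were pin-dosed in an 11-point threefold series (47 μM to 0.79 nM) onto leukemia cells in 1536-well plates (5 μl). Plates held 500 cells/well of NOMO1 or SEM or 1000 cells/well of P12-Ichikawa, each adapted for at least four passages in each medium. Luminescence was read with CellTiter-Glo One after 48 h at 37°C. Viability means the per-plate percentage relative to DMSO wells, using cell-free wells as background.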

[1] = HPLM + 10% dialyzed FBS, 0.000781 µM
[2] = HPLM + 10% dialyzed FBS, 0.00234 µM
[3] = HPLM + 10% dialyzed FBS, 0.00702 µM
[4] = HPLM + 10% dialyzed FBS, 0.0211 µM
[5] = HPLM + 10% dialyzed FBS, 0.0632 µM
[6] = HPLM + 10% dialyzed FBS, 0.19 µM
[7] = HPLM + 10% dialyzed FBS, 0.569 µM
[8] = HPLM + 10% dialyzed FBS, 1.71 µM
[9] = HPLM + 10% dialyzed FBS, 5.12 µM
[10] = HPLM + 10% dialyzed FBS, 15.4 µM
[11] = HPLM + 10% dialyzed FBS, 46.1 µM
[12] = RPMI 5 mM glucose + 10% FBS, 0.000781 µM
[13] = RPMI 5 mM glucose + 10% FBS, 0.00234 µM
[14] = RPMI 5 mM glucose + 10% FBS, 0.00702 µM
[15] = RPMI 5 mM glucose + 10% FBS, 0.0211 µM
[16] = RPMI 5 mM glucose + 10% FBS, 0.0632 µM
[17] = RPMI 5 mM glucose + 10% FBS, 0.19 µM
[18] = RPMI 5 mM glucose + 10% FBS, 0.569 µM
[19] = RPMI 5 mM glucose + 10% FBS, 1.71 µM
[20] = RPMI 5 mM glucose + 10% FBS, 5.12 µM
[21] = RPMI 5 mM glucose + 10% FBS, 15.4 µM
[22] = RPMI 5 mM glucose + 10% FBS, 46.1 µM
[23] = RPMI 5 mM glucose + 10% dialyzed FBS, 0.000781 µM
[24] = RPMI 5 mM glucose + 10% dialyzed FBS, 0.00234 µM
[25] = RPMI 5 mM glucose + 10% dialyzed FBS, 0.00702 µM
[26] = RPMI 5 mM glucose + 10% dialyzed FBS, 0.0211 µM
[27] = RPMI 5 mM glucose + 10% dialyzed FBS, 0.0632 µM
[28] = RPMI 5 mM glucose + 10% dialyzed FBS, 0.19 µM
[29] = RPMI 5 mM glucose + 10% dialyzed FBS, 0.569 µM
[30] = RPMI 5 mM glucose + 10% dialyzed FBS, 1.71 µM
[31] = RPMI 5 mM glucose + 10% dialyzed FBS, 5.12 µM
[32] = RPMI 5 mM glucose + 10% dialyzed FBS, 15.4 µM
[33] = RPMI 5 mM glucose + 10% dialyzed FBS, 46.1 µM

SMILES	cell viability [1]	cell viability [2]	cell viability [3]	cell viability [4]	cell viability [5]	cell viability [6]	cell viability [7]	cell viability [8]	cell viability [9]	cell viability [10]	cell viability [11]	cell viability [12]	cell viability [13]	cell viability [14]	cell viability [15]	cell viability [16]	cell viability [17]	cell viability [18]	cell viability [19]	cell viability [20]	cell viability [21]	cell viability [22]	cell viability [23]	cell viability [24]	cell viability [25]	cell viability [26]	cell viability [27]	cell viability [28]	cell viability [29]	cell viability [30]	cell viability [31]	cell viability [32]	cell viability [33]
Cc1nc2cnc3ccc(C#Cc4cccnc4)cc3c2n1-c1ccc(C(C)(C)C#N)cc1	84.7%	89.5%	86.4%	87.4%	63.2%	56%	58.4%	53.7%	54.2%	54.4%	41%	65.6%	84.1%	78.1%	88.3%	49.1%	43.5%	33.5%	43.7%	36.5%	40.6%	19.9%	71.8%	80.4%	77%	89.2%	53.6%	49.6%	36.4%	36.6%	33.7%	37.6%	24.2%
Cc1coc2c1C(=O)C(=O)c1c-2ccc2c(C)cccc12												120%	123%	107%	112%	128%	120%	114%	123%	111%	121%	115%	125%	116%	124%	117%	116%	112%	117%	109%	109%	103%	108%
CNCCCC12CCC(c3ccccc31)c1ccccc12	93.5%	95.7%	96.7%	95.5%	103%	96.2%	95.8%	92.7%	87.8%	85.8%	63.5%	94.1%	99.5%	102%	103%	104%	95.9%	91.8%	90.2%	84.4%	76.6%	62.6%	93%	98.2%	96.6%	101%	98.3%	88.7%	97.7%	85.7%	86.5%	73.1%	54.8%
CC1CNc2c(cccc2[S+](=O)([O-])N[C@@H](CCCNC(=N)N)C(=O)N2CC[C@@H](C)C[C@@H]2C(=O)O)C1 (some centres undefined)	94.9%	107%	104%	100%	110%	118%	109%	111%	116%	105%	99.5%	107%	113%	108%	117%	116%	114%	111%	116%	119%	116%	98.8%	101%	110%	104%	101%	111%	107%	107%	109%	112%	103%	89.4%
CC[C@H](/C=C/[C@@H](C)[C@H]1CC[C@H]2[C@@H]3CC=C4C[C@@H](O)CC[C@]4(C)[C@H]3CC[C@]12C)C(C)C	100%	109%	94.3%	99.3%	104%	101%	99.5%	93.2%	87.7%	85.9%	87.5%	92.9%	94.3%	97.1%	95.9%	105%	96.3%	94.9%	91.3%	89.6%	83.9%	93.7%	92.7%	95.2%	93%	87.3%	91.8%	94.6%	88.4%	87.8%	87%	85.2%	86.6%
COc1cc(F)c(F)c(Nc2ccc(I)cc2F)c1N[S+](=O)([O-])C1(C[C@H](O)CO)CC1	114%	107%	110%	116%	111%	112%	110%	108%	106%	89%	42.7%	110%	123%	128%	113%	112%	104%	115%	118%	115%	96.4%	74.8%	123%	120%	126%	118%	116%	104%	118%	122%	123%	97.3%	58.2%
COc1ccc([C@@H]2CC(=O)c3c(O)cc(O[C@@H]4O[C@H](CO[C@@H]5O[C@@H](C)[C@H](O)[C@@H](O)[C@H]5O)[C@@H](O)[C@H](O)[C@H]4O)cc3O2)cc1O	107%	109%	106%	114%	120%	124%	121%	118%	115%	114%	116%	94.2%	104%	109%	93.7%	107%	115%	111%	119%	110%	105%	103%	97.3%	117%	114%	111%	123%	116%	126%	119%	122%	111%	114%
O=C1NC(=O)/C(=C/c2ccc3nccc(-c4ccncc4)c3c2)S1	112%	120%	122%	115%	98.4%	95.9%	83.8%	68.4%	57.4%	36.1%	5.85%	109%	107%	103%	109%	96.2%	74.5%	64.2%	50.2%	32.6%	17.1%	7.42%	104%	109%	114%	115%	98.8%	83.3%	68.2%	51.1%	34.3%	20.6%	6.67%
C[C@H]1C[C@@H]2[C@H](CC[C@@]3(C)[C@H]2CC[C@]3(OC(C)=O)C(C)=O)[C@@]\4(C)CCC(=O)\C=C14	99.8%	105%	111%	107%	122%	115%	114%	107%	98.7%	95.5%	107%	112%	112%	123%	108%	113%	113%	110%	101%	94.3%	80.3%	96.3%	101%	113%	102%	107%	120%	103%	96.3%	93.7%	96%	80.1%	88.4%
C[C@]12CCC(=O)C=C1CC[C@@H]1[C@@H]2[C@@H](O)C[C@@]2(C)[C@H]1CC[C@]2(O)C(=O)CO	107%	106%	105%	107%	111%	111%	115%	94.1%	89.7%	88.9%	84.4%	104%	103%	103%	115%	113%	109%	104%	83.2%	78.4%	70.9%	69.2%	104%	115%	107%	119%	112%	114%	100%	78.5%	78.3%	65.4%	64.2%
CCN1CCN(c2ccc(Nc3cc(N(C)C(=O)Nc4c(Cl)c(OC)cc(OC)c4Cl)ncn3)cc2)CC1	107%	109%	103%	108%	106%	97.8%	97.4%	105%	77.7%	73.3%	35.3%	115%	114%	119%	124%	118%	118%	113%	115%	86%	76.7%	47.6%	114%	112%	108%	124%	114%	126%	111%	110%	76.8%	66.8%	53.2%
O=C(Nc1cccc(C(F)(F)F)c1)Nc1cc([S+](=O)([O-])NC2CC2)ccc1-c1ccsc1	127%	109%	115%	111%	112%	114%	110%	110%	108%	104%	76.9%	120%	118%	119%	112%	123%	118%	116%	119%	112%	110%	69.8%	121%	116%	107%	121%	117%	119%	105%	94.1%	107%	103%	50.1%
CCC[S+]([O-])c1ccc2[nH]c(NC(=O)OC)nc2c1 (centres undefined)	98.5%	101%	95.7%	96.5%	101%	92.7%	102%	91.3%	89.5%	25.3%	22.6%	84.2%	89.9%	89%	89.2%	89.7%	93.9%	99.8%	85.7%	82%	51.1%	27%	92.9%	98.8%	87.7%	91.2%	95.7%	87%	86.3%	84.3%	90%	63%	34.7%
N[S+]([O-])(=O)C1=CC=C(NC/2=C/C(=O)C3=CC=CC=C3C2=O)C=C1	102%	115%	119%	114%	129%	120%	123%	118%	117%	118%	115%	110%	112%	108%	112%	112%	124%	125%	126%	111%	124%	100%	107%	114%	113%	120%	117%	121%	128%	124%	121%	131%	105%
C[C@H](NC(=O)c1sccc1OCc1ccc(Cl)cc1)c1ccccc1	97.3%	87.7%	88.8%	83.9%	84.4%	78%	86.3%	87.2%	81.2%	86.2%	82.7%	84.7%	84.5%	80.8%	85.2%	92%	86.4%	81%	85%	74.5%	83.5%	78%	84.6%	90%	91.9%	88.3%	88.4%	83.2%	91.1%	77.1%	74.5%	82.1%	86%
